By IC50 is commonly meant the point on the concentration scale where inhibition reaches its midpoint.

This note sets out measurements from patent US20190071416A1, “COMPOUNDS FOR TREATMENT OF CANCER AND EPIGENETICS” (Agency For Science, Technology and Research, priority 2015, published 2019).

Each structure is given as a SMILES string.

In the test the target is T1, SMYD3 (Homo sapiens, UniProt Q9H7B4).
T1 sequence (Q9H7B4 1-428): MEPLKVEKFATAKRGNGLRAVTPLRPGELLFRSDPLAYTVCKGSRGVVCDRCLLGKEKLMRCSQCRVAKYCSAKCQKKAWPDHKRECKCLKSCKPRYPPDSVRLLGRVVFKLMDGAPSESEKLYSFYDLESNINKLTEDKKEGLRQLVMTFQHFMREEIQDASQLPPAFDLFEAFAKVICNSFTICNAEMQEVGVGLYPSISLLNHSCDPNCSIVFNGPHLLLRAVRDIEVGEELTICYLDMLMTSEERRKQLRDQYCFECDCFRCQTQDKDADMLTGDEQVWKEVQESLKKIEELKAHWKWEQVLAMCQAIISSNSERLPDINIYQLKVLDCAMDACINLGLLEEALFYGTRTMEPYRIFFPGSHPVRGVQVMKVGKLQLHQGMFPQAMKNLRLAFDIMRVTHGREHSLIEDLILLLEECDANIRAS
Put plainly: SMYD3 biochemical assay (MTase-Glo, MAP3K2 peptide substrate). Conditions: Table 3; MTase assay, MAP3K2 peptide substrate; read-out: IC50. A digest of the protocol:
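Luminescent readout of SAH production (coupled SAH→ATP conversion, MTase-Glo) after SMYD3 reacted 30 min at room temperature with 1.0 µM SAM and 10 µM MAP3K2 peptide, both final. Non-linear regression gave IC50 values.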
In the case of `CCCOC(=O)N1CCN(C(=O)c2ccc3c(Cl)cc(-c4ccc5c(cnn5C)c4)nc3c2)C[C@@H]1C` [B144, Propyl (S)-4-(4-chloro-2-(1-methyl-1H-indazol-5-yl)quinoline-7-carbonyl)-2-methylpiperazine-1-carboxylate], the half-inhibitory concentration (IC50) is 0.018 µM. Take `CCCOC(=O)N1CCN(C(=O)c2ccc3c(Cl)cc(-c4cccc(CN)c4)nc3c2)C[C@@H]1C` [B145, Propyl (S)-4-(2-(3-(aminomethyl)phenyl)-4-chloroquinoline-7-carbonyl)-2-methylpiperazine-1-carboxylate]: the IC50 is 0.047 µM.

For the molecule `CCCOC(=O)N1CCN(C(=O)c2ccc3c(Cl)cc(-c4ccc(C(N)=O)cc4)nc3c2)C[C@@H]1C` [B146, Propyl (S)-4-(2-(4-carbamoylphenyl)-4-chloroquinoline-7-carbonyl)-2-methylpiperazine-1-carboxylate], the IC50 amounted to 0.042 µM. As for `CCCOC(=O)N1CCN(C(=O)c2ccc3c(Cl)cc(-c4cn[nH]c4)nc3c2)CC1` [B147, Propyl 4-(4-chloro-2-(1H-pyrazol-4-yl)quinoline-7-carbonyl)piperazine-1-carboxylate], the IC50 came out at 0.15 µM. Turning to `CCCOC(=O)N1CCN(C(=O)c2ccc3c(Cl)cc(-c4ccsc4)nc3c2)CC1` [B148, Propyl 4-(4-chloro-2-(thiophen-3-yl)quinoline-7-carbonyl)piperazine-1-carboxylate], the IC50 was 0.099 µM. The same measure for `CCCOC(=O)N1CCN(C(=O)c2ccc3c(Cl)cc(-c4ccc(NC(C)=O)nc4)nc3c2)CC1` [B149, Propyl 4-(2-(6-acetamidopyridin-3-yl)-4-chloroquinoline-7-carbonyl)piperazine-1-carboxylate]: 0.11 µM; for `CCCOC(=O)N1CCN(C(=O)c2ccc3c(Cl)cc(-c4ccc(F)c(CO)c4)nc3c2)CC1` [B150]: 0.28 µM; for `CCCOC(=O)N1CCN(C(=O)c2ccc3c(Cl)cc(-c4ccc(F)c(C(N)=O)c4)nc3c2)CC1` [B151, Propyl 4-(2-(3-carbamoyl-4-fluorophenyl)-4-chloroquinoline-7-carbonyl)piperazine-1-carboxylate]: 0.62 µM. On to `CCCOC(=O)N1CCN(C(=O)c2ccc3c(Cl)cc(-c4ccc(F)c(C(=O)NC)c4)nc3c2)CC1` [B152, Propyl 4-(4-chloro-2-(4-fluoro-3-(methylcarbamoyl)phenyl)quinoline-7-carbonyl)piperazine-1-carboxylate], for which the half-inhibitory concentration (IC50) came to 0.41 µM.

For `CCCOC(=O)N1CCN(C(=O)c2ccc3c(Cl)cc(-c4cscn4)nc3c2)CC1` [B153, Propyl 4-(4-chloro-2-(thiazol-4-yl)quinoline-7-carbonyl)piperazine-1-carboxylate], the IC50 was determined as 1.13 µM. In the case of `CCCOC(=O)N1CCN(C(=O)c2ccc3c(Cl)cc(-c4ccc(F)c(C(=O)N(C)C)c4)nc3c2)CC1` [B154, Propyl 4-(4-chloro-2-(3-(dimethylcarbamoyl)-4-fluorophenyl)quinoline-7-carbonyl)piperazine-1-carboxylate], the IC50 came out at 2.29 µM. On to `CCCOC(=O)N1CCN(C(=O)c2ccc3c(Cl)cc(-c4ccc5c(cnn5C)c4)nc3c2)CC1C` (stereo not drawn) [B155, Propyl 4-(4-chloro-2-(1-methyl-1H-indazol-5-yl)quinoline-7-carbonyl)-2-methylpiperazine-1-carboxylate], for which the IC50 stood at 0.18 µM. For the molecule `CCCOC(=O)N1CCN(C(=O)c2ccc3c(Cl)cc(-c4ccc(F)c(O)c4)nc3c2)CC1` [B157, Propyl 4-(4-chloro-2-(4-fluoro-3-hydroxyphenyl)quinoline-7-carbonyl)piperazine-1-carboxylate], the IC50 was determined as 0.36 µM. Turning to `CCCOC(=O)N1CCN(C(=O)c2ccc3c(Cl)cc(-c4cccc(C(C)O)c4)nc3c2)CC1` (stereo not drawn) [B158, Propyl 4-(4-chloro-2-(3-(1-hydroxyethyl)phenyl)quinoline-7-carbonyl)piperazine-1-carboxylate], the IC50 turned out to be 0.084 µM. Turning to `CCCOC(=O)N1CCN(C(=O)c2ccc3c(Cl)cc(-c4ccc(C)c(CO)c4)nc3c2)CC1` [B159, Propyl 4-(4-chloro-2-(3-(hydroxymethyl)-4-methylphenyl)quinoline-7-carbonyl)piperazine-1-carboxylate], the IC50 turned out to be 0.12 µM. The same measure for `CCCOC(=O)N1CCN(C(=O)c2ccc3c(Cl)cc(-c4ccc(O)cc4)nc3c2)[C@@H](C)C1` [B160, Propyl (S)-4-(4-chloro-2-(4-hydroxyphenyl)quinoline-7-carbonyl)-3-methylpiperazine-1-carboxylate]: 0.15 µM. On to `CCCOC(=O)N1CCN(C(=O)c2ccc3c(Cl)cc(-c4ccc(CF)cc4)nc3c2)[C@@H](C)C1` [B161, Propyl (S)-4-(4-chloro-2-(4-(fluoromethyl)phenyl)quinoline-7-carbonyl)-3-methylpiperazine-1-carboxylate], for which the half-maximal inhibitory concentration (IC50) came to 0.33 µM. Next, `CCCOC(=O)N1CCN(C(=O)c2ccc3c(Cl)cc(-c4ccc(O)c(F)c4)nc3c2)[C@@H](C)C1` [B162, Propyl (S)-4-(4-chloro-2-(3-fluoro-4-hydroxyphenyl)quinoline-7-carbonyl)-3-methylpiperazine-1-carboxylate]: 0.2 µM; `CCCOC(=O)N1CCN(C(=O)c2ccc3c(Cl)cc(-c4ccc5c(c4)OCO5)nc3c2)CC1` [B163, Propyl 4-(2-(benzo[d][1,3]dioxol-5-yl)-4-chloroquinoline-7-carbonyl)piperazine-1-carboxylate]: 0.12 µM; `CCCOC(=O)N1CCN(C(=O)c2ccc3c(Cl)cc(-c4ccc5nn[nH]c5c4)nc3c2)CC1` [B164, Propyl 4-(2-(1H-benzo[d][1,2,3]triazol-6-yl)-4-chloroquinoline-7-carbonyl)piperazine-1-carboxylate]: 0.36 µM. The same measure for `CCCOC(=O)N1CCN(C(=O)c2ccc3c(Cl)cc(-c4ccc(OC)c(F)c4)nc3c2)CC1` [B165, Propyl 4-(4-chloro-2-(3-fluoro-4-methoxyphenyl)quinoline-7-carbonyl)piperazine-1-carboxylate]: 0.15 µM; for `CCCOC(=O)N1CCN(C(=O)c2ccc3c(Cl)cc(-c4cnc(C)s4)nc3c2)CC1` [B166, Propyl 4-(4-chloro-2-(2-methylthiazol-5-yl)quinoline-7-carbonyl)piperazine-1-carboxylate]: 3.67 µM. As for `CCCOC(=O)N1CCN(C(=O)c2ccc3c(Cl)cc(-c4ccc(F)c(CN(C)C)c4)nc3c2)CC1` [B167], the IC50 came to 0.66 µM. Consider `CCCOC(=O)N1CCN(C(=O)c2ccc3c(Cl)cc(-c4ccn(C)n4)nc3c2)CC1` [B168, Propyl 4-(4-chloro-2-(1-methyl-1H-pyrazol-3-yl)quinoline-7-carbonyl)piperazine-1-carboxylate], for which the IC50 came out at 1.75 µM. As for `CCCOC(=O)N1CCN(C(=O)c2ccc3c(Cl)cc(-c4ccc5[nH]ncc5c4)nc3c2)C[C@@H]1C` [B169, Propyl (S)-4-(4-chloro-2-(1H-indazol-5-yl)quinoline-7-carbonyl)-2-methylpiperazine-1-carboxylate], the IC50 was found to be 0.15 µM. Next, `CCCOC(=O)N1CCN(C(=O)c2ccc3c(Cl)cc(-c4ccc5nn(C)cc5c4)nc3c2)C[C@@H]1C` [B170, Propyl (S)-4-(4-chloro-2-(2-methyl-2H-indazol-5-yl)quinoline-7-carbonyl)-2-methylpiperazine-1-carboxylate]: 0.26 µM.

Regarding `CCCOC(=O)N1CCN(C(=O)c2ccc3c(Cl)cc(-c4ccc(OC)c(CO)c4)nc3c2)C[C@@H]1C` [B171, Propyl (S)-4-(4-chloro-2-(3-(hydroxymethyl)-4-methoxyphenyl)quinoline-7-carbonyl)-2-methylpiperazine-1-carboxylate], the IC50 came out at 0.15 µM. Take `CCCOC(=O)N1CCN(C(=O)c2ccc3c(Cl)cc(-c4ccc(F)c(CN)c4)nc3c2)CC1` [B172, Propyl 4-(2-(3-(aminomethyl)-4-fluorophenyl)-4-chloroquinoline-7-carbonyl)piperazine-1-carboxylate]: the 50% inhibitory concentration (IC50) turned out to be 0.039 µM.

`CCCOC(=O)N1CCN(C(=O)c2ccc3c(Cl)cc(-c4cnc5[nH]nc(C)c5c4)nc3c2)CC1` [B173, Propyl 4-(4-chloro-2-(3-methyl-1H-pyrazolo[3,4-b]pyridin-5-yl)quinoline-7-carbonyl)piperazine-1-carboxylate]: the IC50 was 2.5 µM. For `CCCOC(=O)N1CCN(C(=O)c2ccc3c(Cl)cc(-c4cnc5c(cnn5C)c4)nc3c2)CC1` [B174, Propyl 4-(4-chloro-2-(1-methyl-1H-pyrazolo[3,4-b]pyridin-5-yl)quinoline-7-carbonyl)piperazine-1-carboxylate], the 50% inhibitory concentration (IC50) amounted to 0.47 µM. In the case of `CCCOC(=O)N1CCN(C(=O)c2ccc3c(Cl)cc(-c4cnc5[nH]c(C)cc5c4)nc3c2)CC1` [B175, Propyl 4-(4-chloro-2-(2-methyl-1H-pyrrolo[2,3-b]pyridin-5-yl)quinoline-7-carbonyl)piperazine-1-carboxylate], the IC50 came out at 0.4 µM. In the case of `CCCOC(=O)N1CCN(C(=O)c2ccc3c(Cl)cc(-c4ccc5[nH]nc(C)c5c4)nc3c2)CC1` [B176, Propyl 4-(4-chloro-2-(3-methyl-1H-indazol-5-yl)quinoline-7-carbonyl)piperazine-1-carboxylate], the IC50 was 0.49 µM. Consider `CCCOC(=O)N1CCN(C(=O)c2ccc3c(Cl)cc(-c4ccc(C)nc4)nc3c2)C[C@H]1C` [B177, Propyl (R)-4-(4-chloro-2-(6-methylpyridin-3-yl)quinoline-7-carbonyl)-2-methylpiperazine-1-carboxylate], for which the IC50 amounted to 0.36 µM.
